Results as given in ChEMBL document CHEMBL1150723, “Traditional medicinal plants of Thailand, VIII. Isoflavonoids of Dalbergia candenatensis” (1987).
In brackets after ≈: the same amount, converted by molar mass. Activity calls are given as the source filed them. No cut-off for these calls is given here.

How the values were obtained:
Format in all cases: functional
[1] = test system: Staphylococcus aureus; assay: Antibacterial activity against Staphylococcus aureus ATCC 25923 after 16 hrs by microdilution assay; details: ATCC 25923, 16 h
[2] = test system: Bacillus subtilis; assay: Antibacterial activity against Bacillus subtilis ATCC 6633 after 16 hrs by microdilution assay; details: ATCC 6633, 16 h
[3] = test system: Escherichia coli; assay: Antibacterial activity against Escherichia coli ATCC 25922 after 16 hrs by microdilution assay; details: ATCC 25922, 16 h
[4] = test system: Candida albicans; assay: Antifungal activity against Candida albicans ATCC 10259 after 3 days by microdilution assay
[5] = test system: Penicillium expansum; assay: Antifungal activity against Penicillium expansum ATCC 7861 after 3 days by microdilution assay
[6] = test system: Aspergillus niger; assay: Antifungal activity against Aspergillus niger ATCC 6275 after 3 days by microdilution assay
[7] = test system: Trichophyton mentagrophytes; assay: Antifungal activity against Trichophyton mentagrophytes ATCC 9533 after 3 days by microdilution assay
[8] = test system: P388; assay: Cytotoxicity against mouse P388 cells

Compound	MIC [1] [µg/mL]	MIC [2] [µg/mL]	MIC [3] [µg/mL]	MIC ([4]; ATCC 10259, 72 h) [µg/mL]	MIC ([5]; ATCC 7861, 72 h) [µg/mL]	MIC ([6]; ATCC 6275, 72 h) [µg/mL]	MIC ([7]; ATCC 9533, 72 h) [µg/mL]	ED50 [8]	MIC [4] [µg/mL]	MIC [5] [µg/mL]	MIC [6] [µg/mL]	MIC [7] [µg/mL]	EC50 ([8]; read-out: ED50 (the source's name)) [µg/mL]
COC1=CC(=O)C(c2coc3cc(O)cc(O)c3c2=O)=CC1=O	> 100	100 (≈ 318 µM)	50 (≈ 159 µM)	> 100	> 100	> 100	100 (≈ 318 µM)	inactive					
COc1ccc([C@@H]2COc3cc(O)ccc3C2)c(O)c1	> 100	50 (≈ 184 µM)	50 (≈ 184 µM)	> 100	> 100	> 100	25 (≈ 91.8 µM)						
COc1ccc(C2COc3cc(O)ccc3C2)c(OC)c1O (racemic) [MUCRONULATOL(+/-)]	> 100	> 100	50 (≈ 165 µM)	> 100	> 100	> 100	25 (≈ 82.7 µM)						
COc1ccc(-c2coc3cc(O)ccc3c2=O)cc1 [FORMONONETIN]	> 100	> 100	100 (≈ 373 µM)	> 100	50 (≈ 186 µM)	100 (≈ 373 µM)	> 100						
CN(C)[C@@H]1C(O)=C(C(N)=O)C(=O)[C@@]2(O)C(O)=C3C(=O)c4c(O)cccc4[C@@](C)(O)[C@H]3C[C@@H]12 [TETRACYCLINE]	0.6 (≈ 1.35 µM)	2.5 (≈ 5.63 µM)	1.2 (≈ 2.7 µM)										
NYSTATIN									1.5	6	6	3	
COC1=CC(=O)C([C@@H]2COc3cc(O)ccc3C2)=CC1=O	6 (≈ 21 µM)	3 (≈ 10.5 µM)	6 (≈ 21 µM)	50 (≈ 175 µM)	> 100	100 (≈ 349 µM)	25 (≈ 87.3 µM)						0.5 (≈ 1.75 µM)
